From the supplement of paper PMC13380429

What was measured:
Settings in all cases: 72 h
U2OS [1] = experiment: cell viability relative to DMSO; higher = less toxic
Caco-2 [2] = experiment: as above
HepG2 [3] = experiment: as above
Calu-3 [4] = experiment: as above
Vero E6 [5] = experiment: as above
U2OS [6] = experiment: drug sensitivity score (DSS) for viability; higher = more toxic; extreme values may be limits of the assay
Caco-2 [7] = experiment: as above
HepG2 [8] = experiment: as above
Calu-3 [9] = experiment: as above
Vero E6 [10] = experiment: as above
U2OS [11] = experiment: relative viability EC50 (midpoint between 100% and the lowest measured viability); higher = less toxic
Caco-2 [12] = experiment: as above
HepG2 [13] = experiment: as above
Calu-3 [14] = experiment: as above
Vero E6 [15] = experiment: as above

Row | Compound | cell viability (U2OS [1]; 1 nM) | cell viability (U2OS [1]; 10 nM) | cell viability (U2OS [1]; 100 nM) | cell viability (U2OS [1]; 1000 nM) | cell viability (U2OS [1]; 10000 nM) | cell viability (Caco-2 [2]; 1 nM) | cell viability (Caco-2 [2]; 10 nM) | cell viability (Caco-2 [2]; 100 nM) | cell viability (Caco-2 [2]; 1000 nM) | cell viability (Caco-2 [2]; 10000 nM) | cell viability (HepG2 [3]; 1 nM) | cell viability (HepG2 [3]; 10 nM) | cell viability (HepG2 [3]; 100 nM) | cell viability (HepG2 [3]; 1000 nM) | cell viability (HepG2 [3]; 10000 nM) | cell viability (Calu-3 [4]; 1 nM) | cell viability (Calu-3 [4]; 10 nM) | cell viability (Calu-3 [4]; 100 nM) | cell viability (Calu-3 [4]; 1000 nM) | cell viability (Calu-3 [4]; 10000 nM) | cell viability (Vero E6 [5]; 1 nM) | cell viability (Vero E6 [5]; 10 nM) | cell viability (Vero E6 [5]; 100 nM) | cell viability (Vero E6 [5]; 1000 nM) | cell viability (Vero E6 [5]; 10000 nM) | drug sensitivity score (U2OS [6]) | drug sensitivity score (Caco-2 [7]) | drug sensitivity score (HepG2 [8]) | drug sensitivity score (Calu-3 [9]) | drug sensitivity score (Vero E6 [10]) | relative viability EC50 (U2OS [11]) | relative viability EC50 (Caco-2 [12]) | relative viability EC50 (HepG2 [13]) | relative viability EC50 (Calu-3 [14]) | relative viability EC50 (Vero E6 [15])
1 | OCc1ccccc1O [salicyl-alcohol] | 103% | 95.4% | 101% | 94.4% | 98.6% | 101% | 97.3% | 111% | 107% | 102% | 104% | 98.2% | 85.7% | 105% | 94.2% | 95.5% | 109% | 108% | 94.2% | 96.9% | 98.8% | 104% | 95.5% | 105% | 110% | 0 | 0 | 0 | 0 | 0 | > 10 µM | > 10 µM | > 10 µM | > 10 µM | > 10 µM
2 | CC(C)=CCC/C(C)=C/CC/C(C)=C/CSc1ccccc1C(=O)O [salirasib] | 102% | 97.3% | 98% | 96.6% | 97.9% | 93.4% | 97.8% | 98.9% | 96.3% | 92.6% | 98.5% | 98.7% | 93.9% | 98.5% | 94.8% | 104% | 99.6% | 101% | 103% | 99.2% | 95.8% | 103% | 97.2% | 97.4% | 97.3% | 0 | 0 | 0 | 0 | 0 | > 10 µM | > 10 µM | > 10 µM | > 10 µM | > 10 µM
3 | O=C(Oc1ccccc1C(=O)O)c1ccccc1O [sasapyrine] | 100% | 98.6% | 101% | 97.2% | 94.9% | 106% | 95.3% | 90.3% | 82.8% | 81.9% | 93.1% | 86.4% | 100% | 91.7% | 105% | 87.8% | 108% | 100% | 100% | 93% | 110% | 99.9% | 102% | 88.3% | 89.8% | 0 | 2.6 | 0 | 0 | 0.4 | > 10 µM | > 10 µM | > 10 µM | > 10 µM | > 10 µM
4 | CC(NC(=O)c1ccccc1/N=C/c1c(O)ccc2ccccc12)c1ccccc1 (stereo not given) [sirtinol] | 96.8% | 102% | 96.1% | 101% | 103% | 93.6% | 97.8% | 101% | 105% | 110% | 101% | 106% | 90.7% | 96.9% | 100% | 96.5% | 97.6% | 104% | 112% | 104% | 97.1% | 91.2% | 93% | 92.4% | 101% | 0 | 0 | 0 | 0 | 0 | > 10 µM | > 10 µM | > 10 µM | > 10 µM | > 10 µM
5 | CCCCCCCCCCCCCCCCCC(=O)OC[C@@H](O)[C@H]1OC[C@H](O)[C@H]1O [sorbitan-monostearate] | 102% | 102% | 101% | 107% | 99.9% | 92.1% | 104% | 87.4% | 100% | 98.7% | 93.7% | 89.2% | 98.7% | 102% | 108% | 101% | 92.9% | 94.1% | 108% | 101% | 99.5% | 102% | 97.2% | 100% | 101% | 0 | 0 | 0 | 0 | 0 | > 10 µM | > 10 µM | > 10 µM | > 10 µM | > 10 µM
6 | O=C1[C@@H]2[C@H]3CC[C@H](C3)[C@@H]2C(=O)N1CCCCN1CCN(c2ncccn2)CC1 [tandospirone] | 98.3% | 98.6% | 98.5% | 99.8% | 97.7% | 93.6% | 95.5% | 94.1% | 98.2% | 95.4% | 107% | 97% | 110% | 104% | 99.7% | 113% | 103% | 92% | 86.8% | 99.7% | 107% | 104% | 98.5% | 96.2% | 101% | 0 | 0 | 0 | 1.3 | 0 | > 10 µM | > 10 µM | > 10 µM | > 10 µM | > 10 µM
7 | CCOC(=O)c1ccc(C#Cc2ccc3c(c2)C(C)(C)CCS3)nc1 [tazarotene] | 93.7% | 98% | 92.2% | 92.2% | 93.6% | 91.3% | 96.3% | 96.4% | 86% | 83.8% | 108% | 92.8% | 119% | 105% | 110% | 99.5% | 101% | 100% | 87.5% | 91.2% | 101% | 97.7% | 94.9% | 94.9% | 110% | 0 | 0.7 | 0 | 0.7 | 0 | > 10 µM | > 10 µM | > 10 µM | > 10 µM | > 10 µM
8 | C[C@H](Cn1cnc2c(N)ncnc21)OCP(=O)(O)O [tenofovir] | 101% | 98.6% | 102% | 99.8% | 103% | 97.8% | 89.2% | 96.9% | 99.6% | 107% | 93.9% | 94.6% | 105% | 107% | 115% | 98.4% | 101% | 94.7% | 93.3% | 93.8% | 94.4% | 94.4% | 97.2% | 94.5% | 107% | 0 | 0 | 0 | 0 | 0 | > 10 µM | > 10 µM | > 10 µM | > 10 µM | > 10 µM
9 | Cc1cc(OI)c(C(C)C)cc1-c1cc(C(C)C)c(OI)cc1C [thymol-iodide] | 101% | 103% | 103% | 98.2% | 99.6% | 104% | 102% | 103% | 97.7% | 87.9% | 99.5% | 105% | 92.8% | 99.1% | 93.7% | 91.2% | 97% | 102% | 101% | 105% | 104% | 102% | 99.7% | 99.5% | 97.7% | 0 | 0.2 | 0 | 0 | 0 | > 10 µM | > 10 µM | > 10 µM | > 10 µM | > 10 µM
10 | CC(=O)c1ccc2c(c1)[C@H](NC(=O)c1ccc(F)c(Cl)c1)[C@H](O)C(C)(C)O2 [tonabersat] | 100% | 105% | 92.1% | 101% | 101% | 88.2% | 123% | 81.3% | 107% | 86.6% | 95% | 95.3% | 126% | 97.9% | 90.2% | 95.4% | 100% | 99% | 106% | 111% | 109% | 110% | 103% | 100% | 98.6% | 0 | 0 | 0 | 0 | 0 | > 10 µM | > 10 µM | > 10 µM | > 10 µM | > 10 µM
11 | C(#CCN1CCCC1)CN1CCCC1 [tremorine] | 94.9% | 101% | 91.5% | 95.3% | 92.7% | 91.8% | 108% | 87.3% | 97.7% | 83.1% | 88.5% | 103% | 100% | 97.8% | 93.6% | 109% | 104% | 96.3% | 88.3% | 103% | 103% | 108% | 98.5% | 104% | 92% | 0 | 0.3 | 0 | 0 | 0 | > 10 µM | > 10 µM | > 10 µM | > 10 µM | > 10 µM
12 | COc1cc(Cc2cnc(N)nc2N)cc(OC)c1OC [trimethoprim] | 92.3% | 98.4% | 96% | 99.6% | 105% | 114% | 113% | 119% | 103% | 90.1% | 82.4% | 102% | 106% | 89.8% | 97.6% | 103% | 89.6% | 107% | 110% | 113% | 99.8% | 91.4% | 100% | 94.4% | 96.4% | 0 | 0 | 0 | 0 | 0 | > 10 µM | > 10 µM | > 10 µM | > 10 µM | > 10 µM
13 | CNCc1cc(-c2ccccc2F)n(S(=O)(=O)c2cccnc2)c1 [vonoprazan] | 95.4% | 100% | 98.1% | 102% | 94.4% | 97.5% | 100% | 102% | 100% | 96.4% | 101% | 93.6% | 100% | 94.3% | 107% | 99.8% | 96.7% | 94.9% | 96.6% | 105% | 103% | 99.4% | 97.9% | 99.7% | 98.9% | 0 | 0 | 0 | 0 | 0 | > 10 µM | > 10 µM | > 10 µM | > 10 µM | > 10 µM
14 | COc1cc(-c2ccc(=O)[nH]n2)ccc1OC(F)F [zardaverine] | 97.8% | 95.8% | 103% | 98% | 99.2% | 87.1% | 90% | 96.9% | 96.3% | 104% | 93.8% | 110% | 95.7% | 106% | 99.7% | 108% | 95.9% | 89.5% | 92.4% | 89.4% | 95.5% | 101% | 94.5% | 93% | 92.6% | 0 | 0 | 0 | 0.3 | 0 | > 10 µM | > 10 µM | > 10 µM | > 10 µM | > 10 µM
